Test systems include RPMI-8226 leukemia; SK-MEL-2 melanoma; SK-MEL-5 melanoma; PC-3 prostate; EKVX NSCLC; SNB-19 CNS; UACC-257 melanoma; HS 578T breast; TK-10 renal; MDA-MB-435; ACHN renal; KM12 colon; OVCAR-8 ovarian; SF-295 CNS; K-562 leukemia.
Experiment in all cases: NCI-60 cell line screen, 48 h

For eight compounds, TGI results are on record in PubChem BioAssay (NCI).

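Test compounds were applied to cells in 96-well plates for 48 hours at 5 doses. Definition used: TGI = concentration required for complete inhibition of growth.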

As to `C=C[C@@H]1C[C@]2(C(=O)OC)Cc3nc4ccccc4nc3CC(C(=O)OC)=C2O1`, the TGI with RPMI-8226 leukemia, in the test with SK-MEL-2 melanoma, with SK-MEL-5 melanoma, in the test with PC-3 prostate, in the test on EKVX NSCLC and with SNB-19 CNS was more than 100 µM throughout. Also, the TGI with UACC-257 melanoma, with HS 578T breast, in the test on TK-10 renal, in the test with MDA-MB-435, in the test on ACHN renal and in the test on KM12 colon was more than 100 µM throughout. Further, the TGI in the test on OVCAR-8 ovarian and in the test on SF-295 CNS was more than 100 µM throughout.

For the compound `O=C(O)c1cc(/C=C/c2cc(O)ccc2O)ccc1O`, the TGI with K-562 leukemia, with SK-MEL-2 melanoma, in the test on PC-3 prostate, with EKVX NSCLC, with SNB-19 CNS and in the test on UACC-257 melanoma was more than 10 µM throughout. The TGI in the test on HS 578T breast, in the test on TK-10 renal, in the test with MDA-MB-435, with ACHN renal, in the test on OVCAR-8 ovarian and with SF-295 CNS was more than 10 µM throughout.

With `CC(NC(=O)C(N)CC(=O)O)NC(=O)C1CCC1` (stereo not drawn), the TGI in the test with RPMI-8226 leukemia, with K-562 leukemia, in the test with SK-MEL-2 melanoma, in the test on SK-MEL-5 melanoma, in the test with PC-3 prostate and with EKVX NSCLC was more than 100 µM in each case. The TGI in the test on SNB-19 CNS, with UACC-257 melanoma, in the test with HS 578T breast, with TK-10 renal, with MDA-MB-435 and in the test with ACHN renal was more than 100 µM throughout. Moreover, the TGI with KM12 colon and in the test on OVCAR-8 ovarian was more than 100 µM each time.

Turning to `Cc1nc(N/N=C/c2ccccc2Cl)[nH]c(=O)c1CCO`, the TGI in the test with RPMI-8226 leukemia, with K-562 leukemia, in the test on SK-MEL-5 melanoma, in the test on PC-3 prostate, in the test with EKVX NSCLC and in the test with SNB-19 CNS was more than 100 µM in each case. The TGI was more than 100 µM with UACC-257 melanoma; 81.1 µM with HS 578T breast; more than 100 µM in the test on TK-10 renal; more than 100 µM in the test on MDA-MB-435; more than 100 µM with ACHN renal; more than 100 µM with KM12 colon. Besides, the TGI with OVCAR-8 ovarian came out at 51.7 µM; with SF-295 CNS it was 96 µM.

As for `O=C(O)c1ccc(NC(NC(=O)C(C(F)(F)F)C(F)(F)F)(C(F)(F)F)C(F)(F)F)cc1`, the TGI in the test on RPMI-8226 leukemia, in the test on K-562 leukemia, with SK-MEL-2 melanoma, with SK-MEL-5 melanoma, with PC-3 prostate and in the test on EKVX NSCLC was more than 100 µM throughout. Moreover, the TGI in the test on SNB-19 CNS, in the test with UACC-257 melanoma, in the test on HS 578T breast, in the test with TK-10 renal, in the test on MDA-MB-435 and in the test on ACHN renal was more than 100 µM each time. This compound came in with a TGI with OVCAR-8 ovarian of more than 100 µM.

Consider `Cc1ncc2c(=O)c3c(oc2n1)c1ccccc1n3Cc1ccccc1`, for which the TGI in the test with RPMI-8226 leukemia, in the test with K-562 leukemia, in the test with SK-MEL-5 melanoma, in the test on PC-3 prostate, in the test on EKVX NSCLC and in the test on SNB-19 CNS was more than 100 µM in each case. The TGI in the test with UACC-257 melanoma, in the test on HS 578T breast, in the test with TK-10 renal, with MDA-MB-435, with ACHN renal and in the test on KM12 colon was more than 100 µM throughout. In addition, the TGI in the test with OVCAR-8 ovarian and in the test with SF-295 CNS was more than 100 µM each time.

For the compound `COc1cccc2c1OC(c1ccc(C#N)cc1)C([N+](=O)[O-])=C2` (stereo not drawn), the TGI in the test on K-562 leukemia is more than 100 µM; with SK-MEL-2 melanoma, 4.38 µM; in the test on SK-MEL-5 melanoma, 2.87 µM; with PC-3 prostate, 4.13 µM; in the test with EKVX NSCLC, 18.9 µM; in the test on SNB-19 CNS, 19.2 µM. The TGI in the test on UACC-257 melanoma worked out at 2.68 µM; in the test on HS 578T breast it was 5.74 µM; in the test on TK-10 renal it was 7.77 µM; in the test with MDA-MB-435 it was 2.72 µM; in the test on ACHN renal it was 3.49 µM; in the test with OVCAR-8 ovarian it was 5.28 µM. The same compound showed a TGI with SF-295 CNS of 18.5 µM.

In the case of `C[n+]1c(-c2ccc(/C=N/NC(=O)C(=O)N/N=C/c3ccc(-c4cn5ccsc5[n+]4C)cc3)cc2)cn2ccsc21`, the TGI in the test with RPMI-8226 leukemia, with K-562 leukemia, with SK-MEL-5 melanoma, with PC-3 prostate, with EKVX NSCLC and with SNB-19 CNS was more than 100 µM in each case. Further, the TGI with UACC-257 melanoma, with HS 578T breast, in the test on TK-10 renal, in the test with MDA-MB-435, in the test with ACHN renal and in the test with KM12 colon was more than 100 µM in each case. Further, the TGI with OVCAR-8 ovarian and in the test on SF-295 CNS was more than 100 µM throughout.
